Measurements taken from patent US5010097A, “Novel compounds” (Beecham Pharmaceuticals, priority 1987, dated 1991).

Biological target: T1, human collagenase (human lung fibroblast cell line WI-38) (Homo sapiens, UniProt P03956)
T1 construct: purified from culture supernatants from the human lung fibroblast cell line, WI-38; endogenous in cells; host or cells: WI-38 human lung fibroblasts (enzyme purified from culture supernatants)
T1 sequence (P03956 100-469): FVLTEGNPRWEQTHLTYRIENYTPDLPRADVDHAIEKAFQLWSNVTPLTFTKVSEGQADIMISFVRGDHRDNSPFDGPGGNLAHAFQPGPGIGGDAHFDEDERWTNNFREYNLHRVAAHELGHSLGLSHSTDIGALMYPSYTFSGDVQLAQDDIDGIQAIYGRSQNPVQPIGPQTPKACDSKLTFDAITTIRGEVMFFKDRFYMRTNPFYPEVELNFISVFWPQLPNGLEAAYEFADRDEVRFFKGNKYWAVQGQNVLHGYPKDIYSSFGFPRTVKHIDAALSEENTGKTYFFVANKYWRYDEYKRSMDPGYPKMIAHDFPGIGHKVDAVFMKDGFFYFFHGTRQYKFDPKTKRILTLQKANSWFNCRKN
Experiment: Inhibition of Human Lung Fibroblast Collagenase (collagenase inhibitor assay, 14C-acetylated rat skin Type I collagen substrate)
Format: biochemical
Description: The test is performed essentially as in Cawston and Barrett Anal. Biochem. 99, 340-345 (1979). Compounds for testing are dissolved in methanol and added to purified human collagenase purified from culture supernatants from the human lung fibroblast cell line, WI-38, diluted in a suitable aqueous buffer. After a 5 min pre-incubation at 37° C., the assay tubes are cooled to 4° and ^14 C-acetylated rat skin Type I collagen is added. The assay tubes are incubated at 37° C. overnight. The ^14 C-collagen forms insoluble fibrils which are the substrate for the enzyme.
To terminate the assay, the assay tubes are spun at 12000 rpm for 25 min. Undigested ^14 C-collagen remains as insoluble fibrils and is pelleted, while digested ^14 C-collagen remains as soluble peptides in the supernatant. A sample of the supernatant is taken for liquid scintillation counting.
The activity of collagenase inhibitors (IC50 : 50% inhibitory concentration) is expressed as the concentration of compound that inhibits a known (standard) concentration of enzyme by 50%, or as the % inhibition of the collagen degradation caused by the known (standard) concentration of enzyme, at a stated concentration of the compound.

IC50 (purified human collagenase from WI-38 culture supernatants, 14C-collagen fibrils, 5 min pre-incubation at 37 °C, then 37 °C overnight) | Inhibition (% inhibition of the collagen degradation) (at 1000 (column head nm), purified human collagenase from WI-38, 37 °C overnight) | Structure (SMILES)
0.014 µM | – | CNC(=O)[C@H](Cc1ccc(OC)cc1)NC(=O)C(CC(C)C)C(S)CC(C)=O (single isomer, unassigned) [2 A]
– | 58% | CNC(=O)[C@H](Cc1ccc(OC)cc1)NC(=O)C(CC(C)C)C(S)CC(C)=O (some centres unmarked) [2 C/D]
